Reference: US20130005747A1, “METHOD FOR SELECTING A CANCER THERAPY” (Cyclacel Limited, priority 2010, published 2013)

Key:
Assay in all cases: Fractional growth, 72 h seliciclib
Type in all cases: cell-based, human
[1] = system: SNU-449; details: SNU-449 (Liver), 15 μM seliciclib
Source text: (§1) A total of 270 human cancer cell lines from diverse cancer histopathologic types were investigated.

[2] = system: NCI-H2170; details: NCI-H2170 (Lung: NSCLC), 15 μM seliciclib
Source text: as §1

[3] = system: Daoy; details: Daoy (Brain), 15 μM seliciclib
Source text: as §1

[4] = system: BFTC-905; details: BFTC-905 (Bladder), 15 μM seliciclib
Source text: as §1

[5] = system: NAE; details: NAE (Skin), 15 μM seliciclib
Source text: as §1

[6] = system: DoTc2 4510; details: DoTc2 4510 (Cervix), 15 μM seliciclib
Source text: as §1

[7] = system: PFSK-1; details: PFSK-1 (Brain), 15 μM seliciclib
Source text: as §1

[8] = system: BT-20; details: BT-20 (Breast), 15 μM seliciclib
Source text: as §1

[9] = system: Panc 03.27; details: Panc 03.27 (Pancreas), 15 μM seliciclib
Source text: as §1

[10] = system: RT-112; details: RT-112 (Bladder), 15 μM seliciclib
Source text: as §1

[11] = system: PA-TU-8902; details: PA-TU-8902 (Pancreas), 15 μM seliciclib
Source text: as §1

[12] = system: EN; details: EN (Uterus), 15 μM seliciclib
Source text: as §1

[13] = system: U-2 OS; details: U-2 OS (Bone), 15 μM seliciclib
Source text: as §1

[14] = system: NCI-H630; details: NCI-H630 (Intestine), 15 μM seliciclib
Source text: as §1

[15] = system: HGC-27; details: HGC-27 (Stomach), 15 μM seliciclib
Source text: as §1

[16] = system: HCT-15; details: HCT-15 (Intestine), 15 μM seliciclib
Source text: as §1

[17] = system: SAS; details: SAS (Head & Neck), 15 μM seliciclib
Source text: as §1

[18] = system: HSC-3; details: HSC-3 (Head & Neck), 15 μM seliciclib
Source text: as §1

[19] = system: H4; details: H4 (Brain), 15 μM seliciclib
Source text: as §1

[20] = system: JHU-013; details: JHU-013 (Head & Neck), 15 μM seliciclib
Source text: as §1

[21] = system: PANC-1; details: PANC-1 (Pancreas), 15 μM seliciclib
Source text: as §1

[22] = system: HDQ-P1; details: HDQ-P1 (Breast), 15 μM seliciclib
Source text: as §1

[23] = system: Saos-2; details: Saos-2 (Bone), 15 μM seliciclib
Source text: as §1

[24] = system: NCI-H1792; details: NCI-H1792 (Lung: NSCLC), 15 μM seliciclib
Source text: as §1

[25] = system: COR-L23; details: COR-L23 (Lung: NSCLC), 15 μM seliciclib
Source text: as §1

[26] = system: Detroit 562; details: Detroit 562 (Head & Neck), 15 μM seliciclib
Source text: as §1

[27] = system: KYSE-140; details: KYSE-140 (Esophagus), 15 μM seliciclib
Source text: as §1

[28] = system: PC-3; details: PC-3 (Prostate), 15 μM seliciclib
Source text: as §1

[29] = system: COLO 320DM; details: COLO 320DM (Intestine), 15 μM seliciclib
Source text: as §1

[30] = system: 22RV1; details: 22RV1 (Prostate), 15 μM seliciclib
Source text: as §1

[31] = system: MS751; details: MS751 (Cervix), 15 μM seliciclib
Source text: as §1

[32] = system: CAL-33; details: CAL-33 (Head & Neck), 15 μM seliciclib
Source text: as §1

[33] = system: KP-3; details: KP-3 (Pancreas), 15 μM seliciclib
Source text: as §1

[34] = system: XPA-4; details: XPA-4 (Pancreas), 15 μM seliciclib
Source text: as §1

[35] = system: OVCAR-8; details: OVCAR-8 (Ovary), 15 μM seliciclib
Source text: as §1

[36] = system: 639-V; details: 639-V (Bladder), 15 μM seliciclib
Source text: as §1

[37] = system: 1A6; details: 1A6 (Bladder), 15 μM seliciclib
Source text: as §1

[38] = system: HuCCT1; details: HuCCT1 (Liver), 15 μM seliciclib
Source text: as §1

Compound: CC[C@H](CO)Nc1nc(NCc2ccccc2)c2ncn(C(C)C)c2n1 [seliciclib, roscovitine]
- Fractional Growth [1]: 0.6309
- Fractional Growth [2]: 0.4534
- Fractional Growth [3]: 0.6209
- Fractional Growth [4]: 0.4198
- Fractional Growth [5]: 0.3413
- Fractional Growth [6]: 0.6205
- Fractional Growth [7]: 0.249
- Fractional Growth [8]: 0.7016
- Fractional Growth [9]: 0.5632
- Fractional Growth [10]: 0.243
- Fractional Growth [11]: 0.5577
- Fractional Growth [12]: 0.1503
- Fractional Growth [13]: 0.5686
- Fractional Growth [14]: 0.7543
- Fractional Growth [15]: 0.2806
- Fractional Growth [16]: 0.5363
- Fractional Growth [17]: 0.3207
- Fractional Growth [18]: 0.5223
- Fractional Growth [19]: 0.9708
- Fractional Growth [20]: 0.2699
- Fractional Growth [21]: 0.5761
- Fractional Growth [22]: 0.8137
- Fractional Growth [23]: 0.5733
- Fractional Growth [24]: 0.4649
- Fractional Growth [25]: 0.2341
- Fractional Growth [26]: 0.1846
- Fractional Growth [27]: 0.6278
- Fractional Growth [28]: 0.4021
- Fractional Growth [29]: 0.3188
- Fractional Growth [30]: 0.7432
- Fractional Growth [31]: 0.3573
- Fractional Growth [32]: 0.6834
- Fractional Growth [33]: 0.3396
- Fractional Growth [34]: 0.3444
- Fractional Growth [35]: 0.5886
- Fractional Growth [36]: 0.4196
- Fractional Growth [37]: 0.6475
- Fractional Growth [38]: 0.4559
